# Measured values: patent publication EP4132503B1, “PROBENECID FOR USE IN THE TREATMENT OF SARS-CO-V2 INFECTIONS” (priority 2020, dated 2021)
# Read-outs that look alike come from different tables or passages of the source.
# What was measured:
# [1] = test system: SARS-CoV-2 (Isolate USA-WA1/2020); type: cell-based; conditions: 24 h pre-treatment, compared to DMSO treated infected control
# SARS-CoV-2 [2] = type: cell-based; conditions: post-treatment, added after 1 hour infection, compared to DMSO treated infected control, Figure 3
# SARS-CoV-2 [3] = type: cell-based
# SARS-CoV-2 [4] = conditions: for patients converted to negative SARS-CoV-2 test (of the 10 patients enrolled): 500 mg twice daily
# [5] = cited from earlier work
# [6] = test system: SARS-CoV-2 (Isolate USA-WA1/2020); assay: Prophylactic and therapeutic treatment of SARS-CoV-2 infected hamsters; lung viral titer (TCID50 and plaque assay)
# [7] = prophylactic and therapeutic conditions, both cell types (NHBE and Vero)
structure (smiles),measurement,setting,value
"CCCN(CCC)S(=O)(=O)c1ccc(C(=O)O)cc1 [probenecid, 4-[(dipropylamino)sulfony1] benzoic acid]",reduction in plaque formation,"[1]; 0.0001µM, another experiment, 6 well plate, Figure 2",50%
same,reduction in plaque formation,"[1]; 0.1µM, Vero E6, MOI 0.01, 4 days, Figure 1",72%
same,reduction in plaque formation,"[1]; 5µM, Vero E6, MOI 0.01, 4 days, Figure 1",~ 89%
same,reduction in plaque formation,"[1]; 5µM, another experiment, 6 well plate, Figure 2",~ 93%
same,reduction in plaque formation,SARS-CoV-2 [2]; 0.0001µM,40%
same,reduction in plaque formation,SARS-CoV-2 [2]; 5µM,~ 90%
same,IC50s compared with remdesivir,SARS-CoV-2 [3]; [7],lower
same,IC90s compared with remdesivir,SARS-CoV-2 [3]; [7],lower
same,virus plaque formation,"SARS-CoV-2 [3]; treated prophylactically or therapeutically, compared to controls",dose-dependent decrease
same,patients converted to negative SARS-CoV-2 test (of the 10 patients enrolled),SARS-CoV-2 [4]; Day 4 of treatment,2
same,patients converted to negative SARS-CoV-2 test (of the 10 patients enrolled),SARS-CoV-2 [4]; Day 9 of treatment,four
same,patients converted to negative SARS-CoV-2 test (of the 10 patients enrolled),SARS-CoV-2 [4]; Day 14 of treatment,nine
same,viral shedding of SARS-CoV-2,"SARS-CoV-2 [4]; compared to literature pooled median of 17.2 days, all but one patient (Patient 003)",< 17.2 days
same,patient symptoms,"SARS-CoV-2 [4]; no scored grading system used, shortness of breath and loss of taste or smell persisted",showed improvement
same,coagulation and inflammatory markers,SARS-CoV-2 [4]; with the exception of one patient (Patient 001),mostly maintained within normal ranges
same,lipid solubility,[5],highly lipid soluble
same,effectiveness of the two doses compared,"[6]; 2 mg and 200 mg treatment, single dose",similarly effective
same,lung virus titers,"[6]; day 3 post-infection, all probenecid-treated hamsters (2 or 200 mg/kg, prophylactic or therapeutic, single dose), PBS-treated 1E9+",1E5
same,lung virus,[6]; day 7 post infection,no detectable lung virus
same,prophylactic compared with therapeutic treatment,"[6]; hamster, in vivo",worked similarly
same,decrease of lung virus titers,"[6]; hamsters, compared to PBS-treated",several logs
